Values of other authors as cited in PubChem BioAssay AID1259409 (Chemical Carcinogenesis Research Information System (CCRIS), 2018).

System: rodent chemically induced tumor inhibition, incidence and multiplicity
Assay: CCRIS tumor inhibitor studies

For `CC(=O)Oc1c(C)c(C)c2c(c1C)CCC(C)(CCCC(C)CCCC(C)CCCC(C)C)O2` (stereo not drawn), the “tumour outcome (control, treated, inhibition, significance)” value (Carcinogen: 7,12-DIMETHYLBENZ[A]ANTHRACENE, 57-97-6, Dose [Inhibitor]: 1000 MG/KG IN 20% CORN OIL DIET DAILY STARTING 2 WK BEFORE CARCINOGEN TREATMENT AND CONTINUING FOR DURATION OF STUDY (ST, Route [Inhibitor]: ORAL, Species: RAT, Strain/Sex: SPRAGUE-DAWLEY/FEMALE, Target Tissue: Type of Lesion: MAMMARY GLAND: ADENOCARCINOMA, Dose [Carcinogen]: 10 MG ONCE AT AGE 50 D) is given as 28/30 (93%), 27/30 (90%), 3%, not significant, the “tumour outcome (control, treated, inhibition, significance)” value (Carcinogen: UV-B IRRADIATION, Dose [Inhibitor]: 25, 100 UG/KG IN DIET FOR DURATION OF STUDY BEGINNING 3 WK PRIOR TO IRRADIATION (STUDY DURATION: 40 WK), Route [Inhibitor]: ORAL, Species: MOUSE, Strain/Sex: C3H/HEN/FEMALE, Target Tissue: Type of Lesion: SKIN: TUMOR, Dose [Carcinogen]: 6.4 J/M2/SEC 30 MIN/D 5 D/WK FOR 13 WK , IRRADIATION DISCONTINUED FOR 3 WK DUE TO TOXICITY THEN IT WAS RESUMED FOR 2 WK, Promoter: NONE USED) is given as 67%, 46%, 31%, not calculated and the “tumour outcome (control, treated, inhibition, significance)” value (Carcinogen: UV-B IRRADIATION, Dose [Inhibitor]: 25, 200 UG/KG IN DIET FOR DURATION OF STUDY BEGINNING 3 WK PRIOR TO IRRADIATION (STUDY DURATION: 40 WK), Route [Inhibitor]: ORAL, Species: MOUSE, Strain/Sex: C3H/HEN/FEMALE, Target Tissue: Type of Lesion: SKIN: TUMOR, Dose [Carcinogen]: 6.4 J/M2/SEC 30 MIN/D 5 D/WK FOR 13 WK, IRRADIATION DISCONTINUED FOR 3 WK DUE TO TOXICITY THEN IT WAS RESUMED FOR 2 WK, Promoter: NONE USED) is given as 67%, 19%, 72%, not calculated.
For `Cl`, the “tumour outcome (control, treated, inhibition, significance)” value (Carcinogen: 1,2-DIMETHYLHYDRAZINE, 540-73-8, Dose [Inhibitor]: 0, 5 G/L IN DRINKING WATER FOR DURATION OF STUDY BEGINNING 7 D PRIOR TO CARCINOGEN TREATMENT (STUDY DURATION: 8 MO), Route [Inhibitor]: ORAL, Species: RAT, Strain/Sex: BD6/MALE, Target Tissue: Type of Lesion: INTESTINE: TUMOR, Dose [Carcinogen]: 20 MG/KG BW 1/WK FOR 20 WK, Promoter: NONE USED) is given as 100%, 100%, 0%, not significant, the “tumour outcome (control, treated, inhibition, significance)” value (Carcinogen: BRACKEN FERN, Dose [Inhibitor]: 20 MG/G DIET/D FOR 12 MO SIMULTANEOUS WITH CARCINOGEN (STUDY DURATION: 12 MO), Route [Inhibitor]: ORAL, Species: RAT, Strain/Sex: ALBINO/?, Target Tissue: Type of Lesion: INTESTINE: TUMOR, Dose [Carcinogen]: 0.33 G IN DIET/D FOR 12 MO, Promoter: NONE USED) is given as 30/30 (100%), 16/23 (70%), 30%, p<0.01 and the “tumour outcome (control, treated, inhibition, significance)” value (Carcinogen: BRACKEN FERN, Dose [Inhibitor]: 20 MG/G DIET/D FOR 12 MO SIMULTANEOUS WITH CARCINOGEN (STUDY DURATION: 12 MO), Route [Inhibitor]: ORAL, Species: RAT, Strain/Sex: ALBINO, Target Tissue: Type of Lesion: URINARY BLADDER: TUMOR, Dose [Carcinogen]: 0.33 G IN DIET/D FOR 12 MO, Promoter: NONE USED) is given as 22/30 (73%), 4/23 (17%), 77%, p<0.001. The “tumour outcome (control, treated, inhibition, significance)” value (Carcinogen: N-METHYL-N'-NITRO-N-NITROSOGUANIDINE, 70-25-7, Dose [Inhibitor]: 0, 1% IN DRINKING WATER BEGINNING 1 WK POST CARCINOGEN TREATMENT AND CONTINUING FOR STUDY DURATION (STUDY DURATION: 52 W, Route [Inhibitor]: ORAL, Species: RAT, Strain/Sex: SHR/MALE, Target Tissue: Type of Lesion: STOMACH: ADENOCARCINOMA, Dose [Carcinogen]: 40 ML OF A 25 MG/ML SOLUTION 1/2 D IN DRINKING WATER FOR 25 WK) was 65%, 20%, 69%, p<0.02, the “tumour outcome (control, treated, inhibition, significance)” value (Carcinogen: N-METHYL-N'-NITRO-N-NITROSOGUANIDINE, 70-25-7, Dose [Inhibitor]: 0, 1% IN DRINKING WATER BEGINNING 1 WK POST CARCINOGEN TREATMENT AND CONTINUING FOR STUDY DURATION (STUDY DURATION: 52 W, Route [Inhibitor]: ORAL, Species: RAT, Strain/Sex: WKR/MALE, Target Tissue: Type of Lesion: STOMACH: ADENOCARCINOMA, Dose [Carcinogen]: 40 ML OF A 25 MG/ML SOLUTION 1/2 D IN DRINKING WATER FOR 25 WK) was 25%, 20%, 20%, not calculated and the “tumour outcome (control, treated, inhibition, significance)” value (Carcinogen: N-METHYL-N'-NITRO-N-NITROSOGUANIDINE, 70-25-7, Dose [Inhibitor]: 0, 1% IN DRINKING WATER FOR 27 WK BEGINNING POST CARCINOGEN DOSE (STUDY DURATION: 52 WK), Route [Inhibitor]: ORAL, Species: RAT, Strain/Sex: WISTAR/MALE, Target Tissue: Type of Lesion: STOMACH: TUMOR, Dose [Carcinogen]: 25 UG/ML IN DRINKING WATER FOR 25 WK, Promoter: DEOXYCORTICOSTERONE ACETATE, 56-47-3) was 11/20 (55%), 3/18 (17%), 69%, p<0.05. For the same molecule, the “tumour outcome (control, treated, inhibition, significance)” value (Carcinogen: N-METHYL-N'-NITRO-N-NITROSOGUANIDINE, 70-25-7, Dose [Inhibitor]: 0, 4% IN DIET FOR 25 WK BEGINNING 1 WK POST CARCINOGEN TREATMENT (STUDY DURATION: 52 WK), Route [Inhibitor]: ORAL, Species: RAT, Strain/Sex: WISTAR/MALE, Target Tissue: Type of Lesion: STOMACH: ADENOCARCINOMA, Dose [Carcinogen]: 25 UG/ML IN DRINKING WATER FOR 25 WK, Promoter: SODIUM CHLORIDE, 7647-14-5) was 17/19 (89%), 10/18 (56%), 37%, not significant and the “tumour outcome (control, treated, inhibition, significance)” value (Carcinogen: N-METHYL-N'-NITRO-N-NITROSOGUANIDINE, 70-25-7, Dose [Inhibitor]: 0, 8% IN DIET FOR 25 WK BEGINNING 1 WK POST CARCINOGEN TREATMENT (STUDY DURATION: 52 WK), Route [Inhibitor]: ORAL, Species: RAT, Strain/Sex: WISTAR/MALE, Target Tissue: Type of Lesion: STOMACH: ADENOCARCINOMA, Dose [Carcinogen]: 25 UG/ML IN DRINKING WATER FOR 25 WK, Promoter: SODIUM CHLORIDE, 7647-14-5) was 17/19 (89%), 5/19 (26%), 71%, p<0.01.
In the case of `CCCCCCCCCCCCCCCC`, the “tumour outcome (control, treated, inhibition, significance)” value (Carcinogen: BENZO[A]PYRENE, 50-32-8, Dose [Inhibitor]: 25 MG IN 0.1 ML ACETONE 3/WK ADMINISTERED SIMULTANEOUSLY WITH CARCINOGEN FOR DURATION OF STUDY (STUDY DURATION: 440 D), Route [Inhibitor]: DERMAL, Species: MOUSE, Strain/Sex: ICR/FEMALE, Target Tissue: Type of Lesion: SKIN: PAPILLOMA, Dose [Carcinogen]: 5 UG IN 0.1 ML ACETONE 3/WK FOR DURATION OF STUDY, Promoter: NONE USED) is listed as 16/50 (32%), 5/50 (10%), 69%, not calculated and the “tumour outcome (control, treated, inhibition, significance)” value (Carcinogen: BENZO[A]PYRENE, 50-32-8, Dose [Inhibitor]: 25 MG IN 0.1 ML ACETONE 3/WK ADMINISTERED SIMULTANEOUSLY WITH CARCINOGEN FOR DURATION OF STUDY (STUDY DURATION: 440 D), Route [Inhibitor]: DERMAL, Species: MOUSE, Strain/Sex: ICR/FEMALE, Target Tissue: Type of Lesion: SKIN: SQUAMOUS CARCINOMA, Dose [Carcinogen]: 5 UG IN 0.1 ML ACETONE 3/WK FOR DURATION OF STUDY, Promoter: NONE USED) is listed as 12/50 (24%), 2/50 (4%), 83%, not calculated.
